# Patent US12729377B2, “RNAi agents and compositions for inhibiting expression of angiopoietin-like 3 (ANGPTL3), and methods of use” (Arrowhead Pharmaceuticals, Inc., priority 2017, dated 2026)
# Experiments:
# ANGPTL3 gene [1] = assay: Example 9: serum LDL in cynomolgus monkeys; format: in vivo, cynomolgus macaque (Macaca fascicularis); settings: 2.0 mg/kg single SC injection day 1, cynos, n=3
# Description: (§1) Additional ANGPTL3 RNAi agents were evaluated in cynomolgus monkeys. On day 1, cynomolgus macaque (Macaca fascicularis) primates (also referred to herein as “cynos”) were administered a single subcutaneous injection of 0.3 mL/kg (approximately 2-3 mL volume, depending on animal mass) containing 2.0 mg/kg of an ANGPTL3 RNAi agent, which included either AD05488, AD05743, AD05775, or AD05841, each formulated in saline. […] ANGPTL3 RNAi agents AD05488, AD05743, and AD05775 included nucleotide sequences designed to target position 304 of the ANGPTL3 gene. ANGPTL3 RNAi agent AD05841 included nucleotide sequences designed to target position 1035 of the ANGPTL3 gene.
# (§2) Three (3) cynos in each group were tested (n=3). Blood samples were drawn and serum samples were analyzed on days −14 (predose), −7 (predose), 1 (pre-dose), 8, 15, 22, 29, and 35. Cynos were fasted overnight prior to each collection. ANGPTL3 protein levels in serum were measured by ELISA assay (R&D Systems), according to the manufacturer's recommendations. Triglycerides, total cholesterol, high-density lipoprotein (HDL), and low-density lipoprotein (LDL) in serum were measured on a Cobas® Integra 400 (Roche Diagnostics), according to the manufacturer's recommendations.
# (§3) The ANGPTL3 protein levels, triglyceride levels, total cholesterol levels, HDL levels, and LDL levels for each animal were normalized. For normalization, the level of ANGPTL3 protein, triglyceride, HDL, and total cholesterol, respectively, for each animal at a time point, was divided by the average pre-treatment level of expression in that animal (in this case at days −14, −7, and 1) to determine the ratio of expression “normalized to pre-treatment.”
# ANGPTL3 gene [2] = assay: Example 7: serum total cholesterol in mice; format: in vivo, C57bl/6 mice; set-up: key: ratio: (level/pre-treatment day -1 level) ÷ mean of D5W control group
# Description: (§4) To further assess the in vivo activity of additional ANGPTL3 RNAi agents that are designed to target position 304 on the ANGPTL3 gene, six- to eight-week-old female C57bl/6 mice were used. Pre-dose serum samples were taken at day −1 after a four hour fast. At day 1, each mouse was given a single subcutaneous administration of 200 μl containing 0.5 mg/kg (mpk) of an ANGPTL3 RNAi agent in D5W (dextrose in 5% water), or control (D5W) with no RNAi agent, according to the dosing groups recited in Table 31.
# (§5) Each of the RNAi agents included a modified sequence and an N-acetyl-galactosamine-containing targeting ligand conjugated to the 5′ terminal end of the sense strand. (See Tables 3, 4, and 5 for modified sequences and targeting ligand structures). The injections were performed between the skin and muscle (i.e. subcutaneous injections) into the loose skin over the neck and shoulder area. Three (3) mice in each group were tested (n=3). Serum was collected on days 8, 15, 22, and 29. Mice were fasted for four hours prior to each collection. ANGPTL3 protein levels in serum were measured by ELISA assay (R&D Systems), according to the manufacturer's recommendations. Triglycerides, total cholesterol, high-density lipoprotein (HDL), and low-density lipoprotein (LDL) in serum were measured on a Cobas® Integra 400 (Roche Diagnostics), according to the manufacturer's recommendations.
# (§6) The ANGPTL3 protein levels, triglyceride levels, total cholesterol levels, HDL levels, and LDL levels for each animal were normalized. For normalization, the level of ANGPTL3 protein, triglyceride, HDL, and total cholesterol, respectively, for each animal at a time point, was divided by the pre-treatment level of expression in that animal (in this case at day −1) to determine the ratio of expression “normalized to pre-treatment.” Expression at a specific time point was then normalized to the D5W control group by dividing the “normalized to pre-treatment” ratio for an individual animal by the mean “normalized to pretreatment” ratio of all mice in the D5W control group.
# ANGPTL3 gene [3] = assay: Example 7: serum HDL in mice; format: in vivo; set-up: key: ratio: (level/pre-treatment day -1 level) ÷ mean of D5W control group; settings: 0.5 mg/kg single SC injection day 1, female C57bl/6 mice, n=3, ratio to D5W control
# Description: as §4, §5, §6
# ANGPTL3 protein [4] = assay: Example 7: serum ANGPTL3 protein by ELISA in mice; format: in vivo, C57bl/6 mice; set-up: key: ratio: (level/pre-treatment day -1 level) ÷ mean of D5W control group
# Description: as §4, §5, §6
# ANGPTL3 gene [5] = assay: Example 7: serum LDL in mice; format: in vivo; set-up: key: ratio: (level/pre-treatment day -1 level) ÷ mean of D5W control group; settings: 0.5 mg/kg single SC injection day 1, female C57bl/6 mice, n=3, ratio to D5W control
# Description: as §4, §5, §6
# ANGPTL3 gene [6] = assay: Example 9: serum HDL in cynomolgus monkeys; format: in vivo, cynomolgus macaque (Macaca fascicularis); settings: 2.0 mg/kg single SC injection day 1, cynos, n=3
# Description: as §1, §2, §3
# ANGPTL3 protein [7] = assay: Example 9: serum ANGPTL3 protein by ELISA in cynomolgus monkeys; format: in vivo, cynomolgus macaque (Macaca fascicularis); settings: for Average ANGPTL3 Protein Normalized to Pre-Treatment: 2.0 mg/kg single SC injection day 1, cynos, n=3
# Description: as §1, §2, §3
# ANGPTL3 gene [8] = assay: Example 7: serum triglycerides in mice; format: in vivo, C57bl/6 mice; set-up: key: ratio: (level/pre-treatment day -1 level) ÷ mean of D5W control group
# Description: as §4, §5, §6
# ANGPTL3 gene [9] = assay: Example 9: serum total cholesterol in cynomolgus monkeys; format: in vivo, cynomolgus macaque (Macaca fascicularis); settings: 2.0 mg/kg single SC injection day 1, cynos, n=3
# Description: as §1, §2, §3
# ANGPTL3 gene [10] = assay: Example 9: serum triglycerides in cynomolgus monkeys; format: in vivo, cynomolgus macaque (Macaca fascicularis); settings: 2.0 mg/kg single SC injection day 1, cynos, n=3
# Description: as §1, §2, §3
# [11] = Day 8, 0.5 mg/kg single SC injection on day 1, n=3
# [12] = Day 15, 0.5 mg/kg single SC injection on day 1, n=3
# [13] = Day 22, 0.5 mg/kg single SC injection on day 1, n=3
# [14] = Day 29, 0.5 mg/kg single SC injection on day 1, n=3
substance,measurement,setting,value
"AD05775: RNAi agent duplex: antisense AM07235-AS, sense AM07608-SS (antisense UACUGAUCAAAUAUGUUGAGC; sense GCUCAACAUNUUUGAUCAGUA; (NAG37)s GalNAc ligand; RNAi agent antisense strand modified sequence; RNAi agent sense strand modified sequence; modified_base 10 n = 2′-O-methyl-2-aminoadenosine-3′-phosphate)",Average LDL Normalized to Pre-Treatment,ANGPTL3 gene [1]; Day 8,1.134
same,Average LDL Normalized to Pre-Treatment,ANGPTL3 gene [1]; Day 15,0.909
same,Average LDL Normalized to Pre-Treatment,ANGPTL3 gene [1]; Day 22,1.089
same,Average LDL Normalized to Pre-Treatment,ANGPTL3 gene [1]; Day 29,1.034
same,Average LDL Normalized to Pre-Treatment,ANGPTL3 gene [1]; Day 35,1.008
same,"Avg Total Chol, normalized to pre-treatment and control",ANGPTL3 gene [2]; [11],0.794
same,"Avg Total Chol, normalized to pre-treatment and control",ANGPTL3 gene [2]; [12],0.777
same,"Avg Total Chol, normalized to pre-treatment and control",ANGPTL3 gene [2]; [13],0.812
same,"Avg Total Chol, normalized to pre-treatment and control",ANGPTL3 gene [2]; [14],1.108
same,"Avg HDL, normalized to pre-treatment and control",ANGPTL3 gene [3]; Day 8,0.754
same,"Avg HDL, normalized to pre-treatment and control",ANGPTL3 gene [3]; Day 15,0.757
same,"Avg HDL, normalized to pre-treatment and control",ANGPTL3 gene [3]; Day 22,0.736
same,"Avg HDL, normalized to pre-treatment and control",ANGPTL3 gene [3]; Day 29,1.069
same,"Avg ANGPTL3, normalized to pre-treatment and control",ANGPTL3 protein [4]; [11],0.247
same,"Avg ANGPTL3, normalized to pre-treatment and control",ANGPTL3 protein [4]; [12],0.232
same,"Avg ANGPTL3, normalized to pre-treatment and control",ANGPTL3 protein [4]; [13],0.218
same,"Avg ANGPTL3, normalized to pre-treatment and control",ANGPTL3 protein [4]; [14],0.300
same,"Avg LDL, normalized to pre-treatment and control",ANGPTL3 gene [5]; Day 8,0.975
same,"Avg LDL, normalized to pre-treatment and control",ANGPTL3 gene [5]; Day 15,0.918
same,"Avg LDL, normalized to pre-treatment and control",ANGPTL3 gene [5]; Day 22,1.095
same,"Avg LDL, normalized to pre-treatment and control",ANGPTL3 gene [5]; Day 29,1.534
same,Average HDL Normalized to Pre-Treatment,ANGPTL3 gene [6]; Day 8,0.904
same,Average HDL Normalized to Pre-Treatment,ANGPTL3 gene [6]; Day 15,0.871
same,Average HDL Normalized to Pre-Treatment,ANGPTL3 gene [6]; Day 22,0.737
same,Average HDL Normalized to Pre-Treatment,ANGPTL3 gene [6]; Day 29,0.781
same,Average HDL Normalized to Pre-Treatment,ANGPTL3 gene [6]; Day 35,0.723
same,Average ANGPTL3 Protein Normalized to Pre-Treatment,ANGPTL3 protein [7]; Day 8,0.463
same,Average ANGPTL3 Protein Normalized to Pre-Treatment,ANGPTL3 protein [7]; Day 15,0.352
same,Average ANGPTL3 Protein Normalized to Pre-Treatment,ANGPTL3 protein [7]; Day 22,0.330
same,Average ANGPTL3 Protein Normalized to Pre-Treatment,ANGPTL3 protein [7]; Day 29,0.365
same,Average ANGPTL3 Protein Normalized to Pre-Treatment,ANGPTL3 protein [7]; Day 35,0.379
same,reduction in ANGPTL3 protein compared to pre-treatment,"ANGPTL3 protein [7]; each of the measured time points, single 2.0 mg/kg subcutaneous, cynomolgus monkeys",reduction
same,"Avg TG, normalized to pre-treatment and control",ANGPTL3 gene [8]; [11],0.837
same,"Avg TG, normalized to pre-treatment and control",ANGPTL3 gene [8]; [12],0.610
same,"Avg TG, normalized to pre-treatment and control",ANGPTL3 gene [8]; [13],0.819
same,"Avg TG, normalized to pre-treatment and control",ANGPTL3 gene [8]; [14],0.885
same,Average Total Cholesterol Normalized to Pre-Treatment,ANGPTL3 gene [9]; Day 8,0.965
same,Average Total Cholesterol Normalized to Pre-Treatment,ANGPTL3 gene [9]; Day 15,0.811
same,Average Total Cholesterol Normalized to Pre-Treatment,ANGPTL3 gene [9]; Day 22,0.811
same,Average Total Cholesterol Normalized to Pre-Treatment,ANGPTL3 gene [9]; Day 29,0.813
same,Average Total Cholesterol Normalized to Pre-Treatment,ANGPTL3 gene [9]; Day 35,0.770
same,Average Triglycerides Normalized to Pre-Treatment,ANGPTL3 gene [10]; Day 8,0.466
same,Average Triglycerides Normalized to Pre-Treatment,ANGPTL3 gene [10]; Day 15,0.427
same,Average Triglycerides Normalized to Pre-Treatment,ANGPTL3 gene [10]; Day 22,0.552
same,Average Triglycerides Normalized to Pre-Treatment,ANGPTL3 gene [10]; Day 29,0.391
same,Average Triglycerides Normalized to Pre-Treatment,ANGPTL3 gene [10]; Day 35,0.431
